Results on ten compounds are retold here after ChEMBL document CHEMBL1201862, “PubChem BioAssay data set” (2004).

Among the test systems are 786-0; A498; A549; CCRF-CEM; COLO 205; EKVX; HCC 2998; HL-60; HOP-62; M14; MCF7; MDA-N; Malme-3M; OVCAR-8; SK-MEL-2; SNB-75; SW-620; T47D; TK-10; UO-31.
What all share (test): DTP human tumour cell line panel, 48 h

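Where inhibition never reached the appropriate level, the endpoint shown equals the highest concentration tested. Otherwise, values were interpolated linearly from a five-concentration, 48-hour dose response in 96-well plates. GI50 is the concentration that inhibits growth by half.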 Active and inactive are the calls of the source. Rule as the data show it: active = GI50 up to about 1.1 µM and inactive = higher.

Regarding `O=C(Nc1cccc(Cl)c1)Nn1cnnc1`, the GI50 in the assay with 786-0, with A498, in the assay with A549, with CCRF-CEM, in the assay with COLO 205 and with EKVX was > 100 µM (inactive) throughout. Further, the GI50 (as a rule, the concentration at which growth is held to half of that of the control) with HCC 2998 is > 100 µM (inactive); in the assay with HL-60, 66.5 µM (inactive); with HOP-62, > 100 µM (inactive); in the assay with M14, > 100 µM (inactive); in the assay with MCF7, > 100 µM (inactive); in the assay on MDA-N, > 100 µM (inactive). For the same compound, the GI50 in the assay with Malme-3M, with OVCAR-8, with SK-MEL-2, with SNB-75, in the assay with SW-620 and in the assay with T47D was > 100 µM (inactive) in each case. Moreover, the GI50 in the assay with TK-10 and in the assay with UO-31 was > 100 µM (inactive) each time.

Regarding `CC(=O)c1c2c(cc3c1CC1(Cc4cc5c(cc4C1)CCC5)C3)CCC2`, the GI50 with 786-0, with A498, with A549, with CCRF-CEM, in the assay with EKVX and in the assay on HCC 2998 was > 100 µM (inactive) in each case. In addition, the GI50 in the assay on HL-60, in the assay with HOP-62, in the assay on M14, in the assay on MCF7, in the assay with MDA-N and with Malme-3M was > 100 µM (inactive) each time. Further, the GI50 in the assay with OVCAR-8, in the assay on SK-MEL-2, in the assay on SNB-75, in the assay with SW-620, with T47D and in the assay on TK-10 was > 100 µM (inactive) each time. For the same compound, in the assay with UO-31, the GI50 was > 100 µM (inactive).

For the compound `COC(=O)CC1C(COC(C)=O)OC(n2cc(C)c(=O)[nH]c2=O)C1OC(C)=O` (stereo not drawn), the GI50 in the assay on 786-0, in the assay with A498, with A549, with CCRF-CEM, in the assay on COLO 205 and with EKVX was > 100 µM (inactive) throughout. Moreover, the GI50 with HCC 2998, in the assay with HL-60, in the assay on HOP-62, in the assay on M14, with MCF7 and in the assay on MDA-N was > 100 µM (inactive) throughout. In addition, the GI50 in the assay with Malme-3M, in the assay with OVCAR-8, with SK-MEL-2, in the assay with SNB-75, in the assay on SW-620 and with T47D was > 100 µM (inactive) each time. Further, the GI50 in the assay with TK-10 and with UO-31 was > 100 µM (inactive) throughout.

Regarding `C=CCOCn1ccc(=O)[nH]c1=O`, the GI50 in the assay on 786-0, in the assay on A498, in the assay with A549, with CCRF-CEM, in the assay on COLO 205 and in the assay with EKVX was > 100 µM (inactive) in each case. For the same compound, the GI50 with HCC 2998, in the assay with HL-60, in the assay with HOP-62, in the assay on M14, in the assay with MCF7 and in the assay with MDA-N was > 100 µM (inactive) each time. For the same compound, the GI50 in the assay with Malme-3M was 94.4 µM (inactive); in the assay on OVCAR-8 it was > 100 µM (inactive); in the assay on SNB-75, > 100 µM (inactive); with SW-620, > 100 µM (inactive); with T47D, > 100 µM (inactive); with TK-10, > 100 µM (inactive). Further, the GI50 in the assay on UO-31 is > 100 µM (inactive).

Take `O=[N+]([O-])c1ccc2nc(O)n[n+]([O-])c2c1`: the GI50 with 786-0, with A498, with A549, with CCRF-CEM, in the assay with COLO 205 and with EKVX was > 100 µM (inactive) in each case. In addition, the GI50 in the assay with HCC 2998, with HL-60, in the assay with HOP-62, with M14, in the assay on MCF7 and in the assay with MDA-N was > 100 µM (inactive) in each case. Further, the GI50 in the assay with Malme-3M, in the assay on OVCAR-8, in the assay on SK-MEL-2, in the assay with SNB-75, with SW-620 and with T47D was > 100 µM (inactive) throughout. Further, the GI50 in the assay on TK-10 and in the assay on UO-31 was > 100 µM (inactive) throughout.

On to `CC1C=C(NCC2(CO)CCC2)N=C(N)N1` (stereo not drawn), for which the GI50 in the assay on 786-0 was > 100 µM (inactive); with A498, 91.6 µM (inactive); in the assay on A549, > 100 µM (inactive); with CCRF-CEM, > 100 µM (inactive); with COLO 205 it was > 100 µM (inactive); in the assay with EKVX it was > 100 µM (inactive). Besides, the GI50 in the assay on HCC 2998, in the assay with HL-60, in the assay on HOP-62, in the assay with M14, in the assay on MCF7 and in the assay with MDA-N was > 100 µM (inactive) in each case. Also, the GI50 in the assay with Malme-3M, in the assay with OVCAR-8, in the assay on SK-MEL-2, with SNB-75, in the assay with SW-620 and in the assay on T47D was > 100 µM (inactive) each time. In the assay on UO-31, the GI50 is > 100 µM (inactive).

On to `O=C(c1ccccc1)c1ccc2c(c1)nc1n2C(c2c(Cl)cccc2Cl)SC1` (stereo not drawn), for which the GI50 in the assay on 786-0 is 72.6 µM (inactive); in the assay on A498 it was 58.7 µM (inactive); with A549, 32.7 µM (inactive); in the assay with COLO 205, 45.6 µM (inactive); with EKVX, 50.4 µM (inactive); with HCC 2998, > 100 µM (inactive). Further, the GI50 was 39.4 µM (inactive) in the assay with HL-60; > 100 µM (inactive) in the assay on HOP-62; 48.2 µM (inactive) in the assay with M14; 39.4 µM (inactive) with MCF7; 41.7 µM (inactive) in the assay with MDA-N; 97.5 µM (inactive) in the assay on Malme-3M. In addition, the GI50 in the assay with OVCAR-8 is 63.7 µM (inactive); with SK-MEL-2, > 100 µM (inactive); in the assay with SNB-75 it was 28.4 µM (inactive); in the assay with SW-620 it was > 100 µM (inactive); in the assay with T47D, 14.7 µM (inactive); with TK-10 it was > 100 µM (inactive). The GI50 with UO-31 was 23.9 µM (inactive).

Take `Cc1ccc([N+](=O)[O-])cc1S(=O)(=O)Nc1ccc(C2=NNC(c3ccccc3)C2)cc1` (stereo not drawn): the GI50 in the assay on 786-0 is 20.8 µM (inactive); with A498, 13.2 µM (inactive); in the assay on A549, 19.1 µM (inactive); with COLO 205 it was 16.9 µM (inactive); with EKVX, 21 µM (inactive); in the assay on HCC 2998 it was 18.7 µM (inactive). For the same compound, the GI50 is 16.4 µM (inactive) in the assay with HL-60; 11.5 µM (inactive) in the assay on HOP-62; 21.4 µM (inactive) in the assay with M14; 14.9 µM (inactive) in the assay on MCF7; 23.9 µM (inactive) with MDA-N; 17 µM (inactive) in the assay on Malme-3M. Moreover, the GI50 was 26.2 µM (inactive) in the assay on OVCAR-8; 18.5 µM (inactive) in the assay on SK-MEL-2; 24.8 µM (inactive) in the assay with SNB-75; 25.4 µM (inactive) in the assay on SW-620; 4.23 µM (inactive) with T47D; 19.8 µM (inactive) in the assay on TK-10. In addition, the GI50 with UO-31 was 24.9 µM (inactive).

As to `Oc1cccc(-c2cc(O)c3cc4c(cc3n2)OCO4)c1`, the GI50 in the assay on 786-0 was 5.52 µM (inactive); with A498, 41.8 µM (inactive); in the assay with A549, 5.27 µM (inactive); in the assay on CCRF-CEM, 0.54 µM (active); with COLO 205, 2.68 µM (inactive); in the assay with HCC 2998 it was 4.28 µM (inactive). Further, the GI50 in the assay with HL-60 was 1.26 µM (inactive); with HOP-62, 1.6 µM (inactive); in the assay with M14 it was 3.58 µM (inactive); in the assay with MCF7, 3.1 µM (inactive); in the assay on MDA-N it was 0.231 µM (active); with Malme-3M, 0.352 µM (active). For the same compound, the GI50 in the assay on OVCAR-8 is 2.85 µM (inactive); in the assay with SK-MEL-2, 0.851 µM (active); in the assay on SNB-75, 0.379 µM (active); in the assay on SW-620 it was 3.21 µM (inactive); with T47D, 23.7 µM (inactive); with TK-10, 13.2 µM (inactive). Also, the GI50 with UO-31 was 4.23 µM (inactive).

Turning to `O=c1[nH]cc(F)c(=O)[nH]1` [FLUOROURACIL], the GI50 in the assay on 786-0 was 11.9 µM (inactive); with A498, 10.2 µM (inactive); with A549, 2.11 µM (inactive); in the assay with CCRF-CEM, 35.2 µM (inactive); in the assay on EKVX, 299 µM (inactive); in the assay on HCC 2998 it was 1.6 µM (inactive). For the same compound, the GI50 in the assay on HL-60 was 20.9 µM (inactive); in the assay on HOP-62 it was 21.8 µM (inactive); with M14, 46.5 µM (inactive); in the assay on MCF7, 1.75 µM (inactive); in the assay on MDA-N, 8.07 µM (inactive); in the assay with Malme-3M, 22.5 µM (inactive). The GI50 in the assay with OVCAR-8 is 20.2 µM (inactive); in the assay with SK-MEL-2, 372 µM (inactive); in the assay on SNB-75, 181 µM (inactive); with SW-620, 27.7 µM (inactive); in the assay with T47D, 75.5 µM (inactive); with TK-10 it was 136 µM (inactive). Moreover, in the assay with UO-31, the GI50 was 5.64 µM (inactive).
